Reference: patent US20240174696A1, “2,8-DIAZASPIRO[4.5]DECANE COMPOUNDS” (Genentech, Inc., priority 2021, published 2024)

Experiments:
[1] = target: Human LATS2 catalytic domain (Homo sapiens (Human), UniProt Q9NRM7); assay: LATS2 High ATP HTRF Assay; assay type: biochemical; conditions: no asterisk: LATS2 High ATP HTRF Assay, 5000 μM ATP, 0.05 nM LATS2
Outline: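 Phosphorylation of 0.5 μM STK S1 peptide at high ATP (5000 μM), 2 h at room temperature, by 0.05 nM LATS2 kinase domain/Mob1b complex after 10 min compound pre-incubation. Ki derived from HTRF-based IC50 (4-parameter logistic) by Cheng-Prusoff, ATP Km 105 μM.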

[2] = system: TAZ nuclear translocation in SW1990 cells; assay: TAZ Nuclear Translocation Assay; assay type: cell-based; conditions: Homo sapiens, 4 hours
Experimental: The SW1990 cells (ATCC, CRL2172) were seeded at 5000 cells/well by adding 30 μL/well of cells in RPMI1640, 10% FBS, 2 mM glutamine culture media to a 384-well plate (Greiner 781091). The cells were incubated overnight at 37° C. Next day, test compounds were directly added to the cells using the Echo Liquid Handler (Labcyte), incubate at 37° C. for 4 hours. The cells were fixed with 4% paraformaldehyde and incubate for 20 minutes at room temperature. After washing three times with 100 μL PBS, 0.5% Triton X-100 was added to permeabilize the cells, incubate at room temperature for 5 minutes, following by washing the cells three times with PBS. 3% BSA was added to the cells, incubate for one hour at room temperature, following by washing three times with PBS. 50 μL of 1:750 diluted rabbit Anti-TAZ (Cell signaling D316D) in 3% BSA was added to the cells, incubate at 4° C. overnight. Next day, after washing the cells three times with PBS, 50 μL of 1:1250 diluted donkey anti-Rabbit, Alexa Fluor 488 (Invitrogen A21206) and 1:6250 diluted Hoechst 33342 (Molecular Probes H-21492) in 3% BSA was added to the cells, incubate at room temperature for one hour. The cells were washed three times with PBS, then image with the CellInsight CX7 High-Content Imager. The ratio of nuclear mean fluorescence intensity and cytoplasmic ring region mean fluorescence intensity was calculated. The % inhibition was normalized using DMSO as 0% inhibition and an inhibitor control as 100% inhibition. The EC50 values were calculated by fitting the % inhibition with a nonlinear four-parameter logistical equation.

Chain of Human LATS2 catalytic domain (Q9NRM7 553-1088): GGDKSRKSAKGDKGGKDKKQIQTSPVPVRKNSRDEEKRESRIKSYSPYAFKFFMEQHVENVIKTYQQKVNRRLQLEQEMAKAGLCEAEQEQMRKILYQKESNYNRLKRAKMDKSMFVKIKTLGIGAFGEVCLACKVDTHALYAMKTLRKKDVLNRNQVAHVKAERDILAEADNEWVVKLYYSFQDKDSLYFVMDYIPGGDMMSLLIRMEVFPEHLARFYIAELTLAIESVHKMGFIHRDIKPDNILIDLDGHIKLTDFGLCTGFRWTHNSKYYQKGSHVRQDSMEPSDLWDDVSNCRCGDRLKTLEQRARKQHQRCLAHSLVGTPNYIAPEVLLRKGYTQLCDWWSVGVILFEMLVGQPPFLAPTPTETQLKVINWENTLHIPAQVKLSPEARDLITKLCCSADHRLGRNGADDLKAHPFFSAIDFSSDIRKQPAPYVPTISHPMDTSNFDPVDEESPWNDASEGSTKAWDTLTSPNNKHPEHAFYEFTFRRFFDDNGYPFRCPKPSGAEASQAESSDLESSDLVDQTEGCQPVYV
Chain of Human LATS2 catalytic domain (Q7L9L4 whole entry partner, the tested form may be a part): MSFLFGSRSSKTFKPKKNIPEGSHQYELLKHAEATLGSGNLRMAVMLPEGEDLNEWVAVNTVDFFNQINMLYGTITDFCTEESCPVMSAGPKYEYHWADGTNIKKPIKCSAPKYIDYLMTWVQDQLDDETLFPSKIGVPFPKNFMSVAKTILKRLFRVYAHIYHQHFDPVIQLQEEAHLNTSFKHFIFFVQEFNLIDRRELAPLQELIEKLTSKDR

Ki [1] [nM] | EC50 [2] [nM] | Compound
5.55 | 1900 | Clc1cncc2nc(-c3ccncc3)nc(N3CCC4(CCNC4)CC3)c12 [Compound 161, 5-chloro-2-(pyridin-4-yl)-4-(2,8-diazaspiro[4.5]decan-8-yl)pyrido[3,4-d]pyrimidine]
1.54 | 4700 | Cc1cncc2nc(-c3ccncc3)nc(N3CCC4(CCNC4)CC3)c12 [Compound 162, 5-methyl-2-(pyridin-4-yl)-4-(2,8-diazaspiro[4.5]decan-8-yl)pyrido[3,4-d]pyrimidine]
2.88 | > 10000 | Cc1n[nH]cc1-c1nc(N2CCC3(CCNC3)CC2)c2ccnc(C)c2n1 [Compound 163, 8-methyl-2-(3-methyl-1H-pyrazol-4-yl)-4-(2,8-diazaspiro[4.5]decan-8-yl)pyrido[3,4-d]pyrimidine]
2.67 | 1800 | CC1NCCC12CCN(c1nc(-c3ccncc3)nc3cnccc13)CC2 (stereo not drawn) [Compound 166, 4-(1-methyl-2,8-diazaspiro[4.5]decan-8-yl)-2-(pyridin-4-yl)pyrido[3,4-d]pyrimidine]
1.62 | 830 | CC1CC2(CCN(c3nc(-c4ccncc4)nc4cnccc34)CC2)CN1C (stereo not drawn) [Compound 168, 4-(2,3-dimethyl-2,8-diazaspiro[4.5]decan-8-yl)-2-(pyridin-4-yl)pyrido[3,4-d]pyrimidine]
1.95 | 8400 | COC(=O)C1CC2(CCN(c3nc(-c4ccncc4)nc4cnccc34)CC2)CN1 (stereo not drawn) [Compound 171, methyl 8-(2-(pyridin-4-yl)pyrido[3,4-d]pyrimidin-4-yl)-2,8-diazaspiro[4.5]decane-3-carboxylate]
0.64 | 6500 | CNC(=O)C1CC2(CCN(c3nc(-c4ccncc4)nc4cnccc34)CC2)CN1 (stereo not drawn) [Compound 172, N-methyl-8-(2-(pyridin-4-yl)pyrido[3,4-d]pyrimidin-4-yl)-2,8-diazaspiro[4.5]decane-3-carboxamide]
2.26 | 2700 | Fc1cnccc1-c1nc(N2CCC3(CCNC3)CC2)c2ccncc2n1 [Compound 182, 2-(3-fluoropyridin-4-yl)-4-(2,8-diazaspiro[4.5]decan-8-yl)pyrido[3,4-d]pyrimidine]
2.26 | > 10000 | Cc1[nH]ncc1-c1nc(N2CCC3(CCNC3)CC2)c2c(F)cncc2n1 [Compound 186, 5-fluoro-2-(5-methyl-1H-pyrazol-4-yl)-4-(2,8-diazaspiro[4.5]decan-8-yl)pyrido[3,4-d]pyrimidine]
1.44 | > 10000 | OC1CNCC12CCN(c1nc(-c3ccncc3)nc3cnccc13)CC2 (stereo not drawn) [Compound 187, 8-(2-(pyridin-4-yl)pyrido[3,4-d]pyrimidin-4-yl)-2,8-diazaspiro[4.5]decan-4-ol]
0.76 | 540 | CN1CCC2(CCN(c3nc(-c4ccncc4)nc4cnc(Cn5cc(Cl)cn5)cc34)CC2)C1 [Compound 189, 6-((4-chloro-1H-pyrazol-1-yl)methyl)-4-(2-methyl-2,8-diazaspiro[4.5]decan-8-yl)-2-(pyridin-4-yl)pyrido[3,4-d]pyrimidine]
0.026 | 110 | Cc1n[nH]cc1-c1nc(N2CCC3(CCN(C)C3)CC2)c2cc(Cn3cc(Cl)cn3)ncc2n1 [Compound 190, 6-((4-chloro-1H-pyrazol-1-yl)methyl)-2-(3-methyl-1H-pyrazol-4-yl)-4-(2-methyl-2,8-diazaspiro[4.5]decan-8-yl)pyrido[3,4-d]pyrimidine]
0.057 | 970 | OCC1CC2(CCN(c3nc(-c4ccncc4)nc4cnccc34)CC2)CN1 (stereo not drawn) [Compound 196, (8-(2-(pyridin-4-yl)pyrido[3,4-d]pyrimidin-4-yl)-2,8-diazaspiro[4.5]decan-3-yl)methanol]
1.4 | > 10000 | Cc1n[nH]c(C)c1-c1nc(N2CCC3(CCNC3)CC2)c2ccncc2n1 [Compound 241, 2-(3,5-Dimethyl-1H-pyrazol-4-yl)-4-(2,8-diazaspiro[4.5]decan-8-yl)pyrido[3,4-d]pyrimidine]
0.76 | 2800 | COCc1nccc2c(N3CCC4(CCNC4)CC3)nc(-c3ccncc3)nc12 [Compound 242, 8-(methoxymethyl)-2-(pyridin-4-yl)-4-(2,8-diazaspiro[4.5]decan-8-yl)pyrido[3,4-d]pyrimidine]
1.9 | 3900 | COCc1cncc2nc(-c3ccncc3)nc(N3CCC4(CCNC4)CC3)c12 [Compound 243, 5-(Methoxymethyl)-2-(pyridin-4-yl)-4-(2,8-diazaspiro[4.5]decan-8-yl)pyrido[3,4-d]pyrimidine]
0.039 | 4800 | CC(C)(O)C#Cc1nccc2c(N3CCC4(CCNC4)CC3)nc(-c3ccncc3)nc12 [Compound 245, 2-methyl-4-(2-(pyridin-4-yl)-4-(2,8-diazaspiro[4.5]decan-8-yl)pyrido[3,4-d]pyrimidin-8-yl)but-3-yn-2-ol]
3.5 | 3100 | FC(F)(F)c1cncc2nc(-c3ccncc3)nc(N3CCC4(CCNC4)CC3)c12 [Compound 246, 2-(pyridin-4-yl)-4-(2,8-diazaspiro[4.5]decan-8-yl)-5-(trifluoromethyl)pyrido[3,4-d]pyrimidine]
0.039 | 310 | CN1CCC2(CCN(c3nc(-c4ccncc4)nc4c(C#CC(C)(C)O)nccc34)CC2)C1 [Compound 247, 2-methyl-4-(4-(2-methyl-2,8-diazaspiro[4.5]decan-8-yl)-2-(pyridin-4-yl)pyrido[3,4-d]pyrimidin-8-yl)but-3-yn-2-ol]
0.02 | 110 | CC(C)Oc1cncc2nc(-c3ccncc3)nc(N3CCC4(CCNC4)CC3)c12 [Compound 248, 5-isopropoxy-2-(pyridin-4-yl)-4-(2,8-diazaspiro[4.5]decan-8-yl)pyrido[3,4-d]pyrimidine]
0.27 | > 10000 | Oc1cncc2nc(-c3ccncc3)nc(N3CCC4(CCNC4)CC3)c12 [Compound 249, 2-(Pyridin-4-yl)-4-(2,8-diazaspiro[4.5]decan-8-yl)pyrido[3,4-d]pyrimidin-5-ol]
0.033 | 100 | COc1cncc2nc(-c3ccncc3)nc(N3CCC4(CCN(CC(C)(C)O)C4)CC3)c12 [Compound 250, 1-(8-(5-methoxy-2-(pyridin-4-yl)pyrido[3,4-d]pyrimidin-4-yl)-2,8-diazaspiro[4.5]decan-2-yl)-2-methylpropan-2-ol]
3.5 | > 10000 | [O-][n+]1ccc(-c2nc(N3CCC4(CCNC4)CC3)c3ccncc3n2)cc1 [Compound 251, 4-(4-(2,8-diazaspiro[4.5]decan-8-yl)pyrido[3,4-d]pyrimidin-2-yl)pyridine 1-oxide]
0.28 | 120 | COc1cncc2nc(-c3ccncc3)nc(N3CCC4(CCN(CC5(O)CCC5)C4)CC3)c12 [Compound 253, 1-((8-(5-methoxy-2-(pyridin-4-yl)pyrido[3,4-d]pyrimidin-4-yl)-2,8-diazaspiro[4.5]decan-2-yl)methyl)cyclobutan-1-ol]
0.018 | 100 | C=CCOc1cncc2nc(-c3ccncc3)nc(N3CCC4(CCNC4)CC3)c12 [Compound 254, 5-(allyloxy)-2-(pyridin-4-yl)-4-(2,8-diazaspiro[4.5]decan-8-yl)pyrido[3,4-d]pyrimidine]
0.034 | 140 | COc1cncc2nc(-c3ccncc3)nc(N3CCC4(CCN(CC5COC5)C4)CC3)c12 [Compound 255, 5-Methoxy-4-(2-(oxetan-3-ylmethyl)-2,8-diazaspiro[4.5]decan-8-yl)-2-(pyridin-4-yl)pyrido[3,4-d]pyrimidine]
0.19 | 470 | C#CCCN1CCC2(CCN(c3nc(-c4ccncc4)nc4cnccc34)CC2)C1 [Compound 256, 4-(2-(but-3-yn-1-yl)-2,8-diazaspiro[4.5]decan-8-yl)-2-(pyridin-4-yl)pyrido[3,4-d]pyrimidine]
8 | > 10000 | COc1[nH]ncc1-c1nc(N2CCC3(CCNC3)CC2)c2ccncc2n1 [Compound 257, 2-(5-methoxy-1H-pyrazol-4-yl)-4-(2,8-diazaspiro[4.5]decan-8-yl)pyrido[3,4-d]pyrimidine]
1.8 | 1900 | CN(C)c1cncc2nc(-c3ccncc3)nc(N3CCC4(CCNC4)CC3)c12 [Compound 258, N,N-Dimethyl-2-(pyridin-4-yl)-4-(2,8-diazaspiro[4.5]decan-8-yl)pyrido[3,4-d]pyrimidin-5-amine]
1.6 | > 10000 | CN1CCC2(CCN(c3nc(-c4ccncc4)nc4cncc(O)c34)CC2)C1 [Compound 259, 4-(2-methyl-2,8-diazaspiro[4.5]decan-8-yl)-2-(pyridin-4-yl)pyrido[3,4-d]pyrimidin-5-ol]
